Measurements from PubChem BioAssay (NCI).
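Exposure lasted 48 hours, with cells grown in 96-well plates and compounds tested at five concentrations. TGI denotes the concentration required for complete inhibition of growth.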

Assays:
Test in all cases: inhibition of tumour cell growth, NCI panel, 48 h
[1] = system: RPMI-8226 leukemia
[2] = system: MDA-N
[3] = system: HL-60(TB) leukemia
[4] = system: SN12C renal
[5] = system: OVCAR-5 ovarian
[6] = system: SNB-19 CNS
[7] = system: BT-549 breast
[8] = system: U251 CNS
[9] = system: KM12 colon
[10] = system: MOLT-4 leukemia
[11] = system: HCT-15 colon
[12] = system: COLO 205 colon
[13] = system: NCI-H460 lung
[14] = system: IGROV1 ovarian
[15] = system: LOX IMVI melanoma
[16] = system: PC-3 prostate
[17] = system: MDA-MB-435
[18] = system: M14 melanoma
[19] = system: MALME-3M melanoma
[20] = system: SR leukemia
[21] = system: SW-620 colon
[22] = system: UACC-62 melanoma
[23] = system: UACC-257 melanoma
[24] = system: CCRF-CEM leukemia
[25] = system: OVCAR-4 ovarian
[26] = system: DU-145 prostate
[27] = system: 786-0 renal
[28] = system: HS 578T breast
[29] = system: MCF7 breast
[30] = system: EKVX NSCLC
[31] = system: SK-MEL-28 melanoma
[32] = system: NCI-H23 lung
[33] = system: ACHN renal
[34] = system: SK-MEL-2 melanoma
[35] = system: A549 NSCLC
[36] = system: OVCAR-3 ovarian
[37] = system: SNB-75 CNS
[38] = system: HOP-62 NSCLC
[39] = system: OVCAR-8 ovarian
[40] = system: NCI-H522 lung
[41] = system: HT29 colon
[42] = system: NCI/ADR-RES ovarian
[43] = system: TK-10 renal
[44] = system: K-562 leukemia
[45] = system: NCI-H226 lung
[46] = system: UO-31 renal
[47] = system: SK-OV-3 ovarian
[48] = system: HCT-116 colon
[49] = system: SF-295 CNS
[50] = system: CAKI-1 renal
[51] = system: SF-268 CNS
[52] = system: SK-MEL-5 melanoma
[53] = system: MDA-MB-231 breast
[54] = system: SF-539 CNS
[55] = system: HCC-2998 colon
[56] = system: T-47D breast
[57] = system: RXF 393 renal
[58] = system: A498 renal

## O=c1c(-c2ccccc2)c(SCCO)n(-c2ccccc2)c(=S)n1-c1ccccc1
[1]
  TGI: > 100 µM
[2]
  TGI: > 100 µM
[3]
  TGI: > 100 µM
[4]
  TGI: > 100 µM
[5]
  TGI: > 100 µM
[6]
  TGI: > 100 µM
[7]
  TGI: > 100 µM
[8]
  TGI: > 100 µM
[9]
  TGI: > 100 µM
[10]
  TGI: > 100 µM
[11]
  TGI: > 100 µM
[12]
  TGI: > 100 µM
[13]
  TGI: > 100 µM
[14]
  TGI: > 100 µM
[15]
  TGI: > 100 µM
[16]
  TGI: > 100 µM
[17]
  TGI: > 100 µM
[18]
  TGI: > 100 µM
[19]
  TGI: > 100 µM
[20]
  TGI: > 100 µM
[21]
  TGI: > 100 µM
[22]
  TGI: > 100 µM
[23]
  TGI: > 100 µM
[24]
  TGI: > 100 µM
[25]
  TGI: > 100 µM
[26]
  TGI: > 100 µM
[27]
  TGI: > 100 µM
[28]
  TGI: > 100 µM
[29]
  TGI: > 100 µM
[30]
  TGI: > 100 µM
[31]
  TGI: > 100 µM
[32]
  TGI: > 100 µM
[33]
  TGI: > 100 µM
[34]
  TGI: > 100 µM
[35]
  TGI: > 100 µM
[36]
  TGI: > 100 µM
[37]
  TGI: > 100 µM
[38]
  TGI: > 100 µM
[39]
  TGI: > 100 µM
[40]
  TGI: > 100 µM
[41]
  TGI: > 100 µM
[42]
  TGI: > 100 µM
[43]
  TGI: > 100 µM
[44]
  TGI: > 100 µM
[45]
  TGI: > 100 µM
[46]
  TGI: > 100 µM
[47]
  TGI: > 100 µM
[48]
  TGI: > 100 µM
[49]
  TGI: > 100 µM
[50]
  TGI: > 100 µM
[51]
  TGI: > 100 µM
[52]
  TGI: > 100 µM

## NNC(=O)C1(NC(=O)c2ccccc2)C(c2ccccc2)C(c2ccccc2)=NN1c1ccccc1 (configuration not stated)
[1]
  TGI: > 100 µM
[53]
  TGI: > 100 µM
[2]
  TGI: 57.9 µM
[4]
  TGI: > 100 µM
[5]
  TGI: > 100 µM
[6]
  TGI: > 100 µM
[7]
  TGI: > 100 µM
[8]
  TGI: > 100 µM
[9]
  TGI: > 100 µM
[10]
  TGI: 40.7 µM
[11]
  TGI: > 100 µM
[12]
  TGI: > 100 µM
[13]
  TGI: > 100 µM
[14]
  TGI: > 100 µM
[15]
  TGI: > 100 µM
[16]
  TGI: > 100 µM
[17]
  TGI: > 100 µM
[18]
  TGI: 54.9 µM
[19]
  TGI: > 100 µM
[20]
  TGI: 65.6 µM
[21]
  TGI: > 100 µM
[22]
  TGI: 56.9 µM
[23]
  TGI: > 100 µM
[24]
  TGI: 98.4 µM
[25]
  TGI: > 100 µM
[26]
  TGI: > 100 µM
[27]
  TGI: > 100 µM
[54]
  TGI: > 100 µM
[29]
  TGI: > 100 µM
[30]
  TGI: > 100 µM
[31]
  TGI: > 100 µM
[32]
  TGI: > 100 µM
[55]
  TGI: > 100 µM
[33]
  TGI: > 100 µM
[34]
  TGI: > 100 µM
[35]
  TGI: > 100 µM
[36]
  TGI: > 100 µM
[37]
  TGI: > 100 µM
[38]
  TGI: > 100 µM
[39]
  TGI: > 100 µM
[40]
  TGI: > 100 µM
[42]
  TGI: > 100 µM
[43]
  TGI: > 100 µM
[56]
  TGI: > 100 µM
[44]
  TGI: > 100 µM
[45]
  TGI: > 100 µM
[46]
  TGI: > 100 µM
[47]
  TGI: > 100 µM
[48]
  TGI: > 100 µM
[49]
  TGI: > 100 µM
[57]
  TGI: 53.4 µM
[50]
  TGI: 92 µM
[58]
  TGI: > 100 µM
[51]
  TGI: > 100 µM
[52]
  TGI: > 100 µM
